Results on three compounds are retold here after ChEMBL document CHEMBL4219234, “4-Substituted carbamazepine derivatives: Conformational analysis and sodium channel-blocking properties” (Bioorg Med Chem, 2018).

Active and inactive are the calls of the source. The rule behind the calls is not given here.

In data set [1] the target is Sodium channel protein type 2 subunit alpha (Homo sapiens) (UniProt Q99250). As to the kind of experiment: Inhibition of human Nav1.2 expressed in CHOK1 cells assessed as reduction in peak inward current at 30th pulse using holding potential of -50 mV by patch clamp assay. It counts as cell-based. In general terms: Patch clamp records ionic current or voltage across a cell membrane.

The nature of data set [2]: Solubility of the compound in DMSO at > 14.3 uM. It is filed as physicochemical.
The nature of data set [3]: Solubility of the compound in DMSO at > 30 uM. It is filed as physicochemical.

Sequence of Sodium channel protein type 2 subunit alpha (Homo sapiens) (Q99250 whole entry, looked up): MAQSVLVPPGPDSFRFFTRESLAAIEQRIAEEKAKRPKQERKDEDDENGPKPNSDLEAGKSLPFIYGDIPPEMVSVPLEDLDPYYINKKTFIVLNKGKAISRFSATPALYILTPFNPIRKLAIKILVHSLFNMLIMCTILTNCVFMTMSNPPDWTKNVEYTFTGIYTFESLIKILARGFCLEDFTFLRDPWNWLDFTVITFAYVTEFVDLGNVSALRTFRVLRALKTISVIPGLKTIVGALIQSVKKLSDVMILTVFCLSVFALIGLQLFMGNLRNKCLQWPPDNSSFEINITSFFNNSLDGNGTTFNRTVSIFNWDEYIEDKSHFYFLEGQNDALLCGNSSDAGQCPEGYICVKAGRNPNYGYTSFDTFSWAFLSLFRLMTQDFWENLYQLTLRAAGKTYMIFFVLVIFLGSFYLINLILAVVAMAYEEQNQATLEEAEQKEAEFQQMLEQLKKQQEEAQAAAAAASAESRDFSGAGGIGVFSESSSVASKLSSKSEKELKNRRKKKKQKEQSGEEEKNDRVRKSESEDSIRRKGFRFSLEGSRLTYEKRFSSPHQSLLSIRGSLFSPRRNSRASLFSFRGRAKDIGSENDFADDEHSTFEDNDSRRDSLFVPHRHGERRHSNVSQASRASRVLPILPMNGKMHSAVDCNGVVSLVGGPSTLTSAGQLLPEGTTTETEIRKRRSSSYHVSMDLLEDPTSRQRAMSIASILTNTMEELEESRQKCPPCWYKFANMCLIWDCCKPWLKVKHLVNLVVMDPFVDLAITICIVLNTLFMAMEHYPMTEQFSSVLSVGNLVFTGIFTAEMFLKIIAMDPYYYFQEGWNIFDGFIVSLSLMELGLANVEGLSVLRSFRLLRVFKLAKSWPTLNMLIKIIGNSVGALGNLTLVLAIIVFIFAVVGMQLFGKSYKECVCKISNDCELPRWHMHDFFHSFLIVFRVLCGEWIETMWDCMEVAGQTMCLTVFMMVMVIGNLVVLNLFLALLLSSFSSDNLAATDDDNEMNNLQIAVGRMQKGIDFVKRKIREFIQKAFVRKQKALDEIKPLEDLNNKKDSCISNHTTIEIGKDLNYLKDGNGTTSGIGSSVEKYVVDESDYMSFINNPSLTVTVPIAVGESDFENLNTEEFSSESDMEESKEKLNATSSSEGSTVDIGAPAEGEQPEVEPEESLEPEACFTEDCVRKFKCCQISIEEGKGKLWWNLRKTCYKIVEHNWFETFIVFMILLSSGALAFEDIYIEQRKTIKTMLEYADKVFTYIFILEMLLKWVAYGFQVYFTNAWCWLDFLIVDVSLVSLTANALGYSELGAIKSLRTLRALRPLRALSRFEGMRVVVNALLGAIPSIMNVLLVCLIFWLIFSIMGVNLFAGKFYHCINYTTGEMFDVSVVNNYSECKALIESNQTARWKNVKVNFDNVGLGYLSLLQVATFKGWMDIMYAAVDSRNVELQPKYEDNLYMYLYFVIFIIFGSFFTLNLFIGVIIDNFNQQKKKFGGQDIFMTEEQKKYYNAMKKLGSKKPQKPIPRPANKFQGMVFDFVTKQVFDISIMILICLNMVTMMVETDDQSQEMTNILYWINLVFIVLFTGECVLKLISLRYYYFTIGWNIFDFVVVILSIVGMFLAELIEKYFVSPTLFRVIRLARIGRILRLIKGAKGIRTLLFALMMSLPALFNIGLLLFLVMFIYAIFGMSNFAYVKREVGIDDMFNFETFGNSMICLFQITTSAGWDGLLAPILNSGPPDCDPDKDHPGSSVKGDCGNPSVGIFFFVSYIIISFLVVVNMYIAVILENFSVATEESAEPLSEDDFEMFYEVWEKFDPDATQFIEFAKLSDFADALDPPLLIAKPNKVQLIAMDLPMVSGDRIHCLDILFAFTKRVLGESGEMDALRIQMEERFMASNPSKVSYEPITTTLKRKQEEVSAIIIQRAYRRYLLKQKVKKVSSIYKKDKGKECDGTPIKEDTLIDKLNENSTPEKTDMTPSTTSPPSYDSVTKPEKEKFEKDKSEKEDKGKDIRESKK

Consider `NC(=O)N1c2ccccc2C=Cc2cccc(Cl)c21`, for which the inhibition result in data set [1] is “Active”. The solubility entry in data set [2] is reported as “Insoluble”.

Take `NC(=O)N1c2ccccc2C=Cc2ccccc21`: the inhibition entry in data set [1] was “Active”.

On to `Cc1cccc2c1N(C(N)=O)c1ccccc1C=C2`, for which the solubility entry in data set [3] was “Insoluble”. The inhibition entry in data set [1] was “Active”.
